Among the data in patent publication EP3470068B1, “ANTIBACTERIAL COMPOSITIONS WITH ENHANCED ACTIVITY” (Università degli Studi di Parma, priority 2017, dated 2019) are MIC, LD90 and LD99 values, retold here.

Peptide text beside a SMILES is read from it. Where only a bound is given, the exact number is not on record here.

The subject of assay [1] is Escherichia coli ATCC 25922. The experiment in a line: MIC by serial microdilution in liquid culture. In kind it is cell-based. Particulars: E. coli ATCC 25922; phosphate buffer 10 mM with 40% Müller Hinton broth, 24 hours at 37°C. How it is done: (§1) For each bacterial strain 3-5 morphologically similar colonies from fresh cultures were taken, inoculated in Brain Heart Infusion broth medium and then incubated at 37°C in agitation at 225 r.p.m. for about 3-4 hours. Subsequently, the bacterial suspension was centrifuged at 1000 r.p.m. for 20 minutes and the obtained pellet was resuspended in phosphate buffer 10 mM. Turbidity of the bacterial suspension was measured by evaluating the absorbance using a spectrophotometer at 600 nm. The range 0,08-0,13 equates to a concentration of about 10^8 CFU/ml. The bacterial suspension was diluted 1:100 in phosphate buffer 10 mM, then, within 30 minutes, 50 µl of this bacterial suspension (10^6 CFU/ml) were inoculated in each well of the microtiter plate to obtain a final bacterial concentration of about 5 x 10^5 CFU/ml.
(§2) The different molecules were tested for their ability to inhibit bacterial and fungal growth in broth culture. Single molecules were diluted in phosphate buffer 10 mM with 40% of Müller Hinton broth. 50 µl of diluted molecules were added to microtiter U plate wells with phosphate buffer and 40% of Müeller Hinton broth and a suspension of one of these strains: Escherichia coli ATCC 25922, Pseudomonas aeruginosa ATCC 27853, Staphylococcus aureus ATCC 25923, MRSA ATCC 43300, Candida albicans ATCC 11006 or Malassezia pachydermatis DSMZ 6172.
(§3) For bacterial strains the different molecules were tested at the following concentrations: • NCP-3: from 0,2 µg/ml to 50 µg/ml • Benzalkonium chloride: from 0,00008% to 0,04% • Thimerosal: from 0,0008% to 0,4% • Tris/EDTA: from 0,4%/0,1% to 0,0008%/0,0002%
(§4) Bacterial and fungal growth controls were cultured in absence of antimicrobial molecules. Microtiter plates were incubated 24 or 48 hours (bacterial and fungal strains, respectively) at 37°C and subsequently MIC was determined for each molecule against each strain.
On the technique in general: Dilution methods test growth across graded concentrations, often in twofold steps.

The test system of assay [2] is Pseudomonas aeruginosa ATCC 27853. Briefly: MIC by serial microdilution in liquid culture. In kind it is cell-based. The note with it: P. aeruginosa ATCC 27853; phosphate buffer 10 mM with 40% Müller Hinton broth, 24 hours at 37°C. The procedure:
as §1, §2, §3, §4

For assay [3], the system named is Staphylococcus aureus ATCC 25923. The experiment in a line: MIC by serial microdilution in liquid culture. Particulars: S. aureus ATCC 25923; phosphate buffer 10 mM with 40% Müller Hinton broth, 24 hours at 37°C. In kind it is cell-based. How it is done:
as §1, §2, §3, §4

For assay [4], the system named is MRSA ATCC 43300. Briefly: MIC by serial microdilution in liquid culture. In kind it is cell-based, Methicillin Resistant Staphylococcus aureus (MRSA). Particulars: phosphate buffer 10 mM with 40% Müller Hinton broth, 24 hours at 37°C. How it is done: as §1
(§5) The different molecules were tested for their ability to inhibit bacterial and fungal growth in broth culture. Single molecules were diluted in phosphate buffer 10 mM with 40% of Müller Hinton broth. 50 µl of diluted molecules were added to microtiter U plate wells with phosphate buffer and 40% of Müeller Hinton broth and a suspension of one of these strains: Escherichia coli ATCC 25922, Pseudomonas aeruginosa ATCC 27853, Staphylococcus aureus ATCC 25923, MRSA ATCC 43300, Candida albicans ATCC 11006 or Malassezia pachydermatis DSMZ 6172. […]

The test system of assay [5] is Gram positive bacteria. The experiment in a line: MIC by serial microdilution. The note with it: used alone. In kind it is cell-based. The procedure: as §1, §5
The subject of assay [6] is Gram negative. The experiment in a line: MIC by serial microdilution. In kind it is cell-based. Particulars: used alone. How it is done: as §1, §5
Assay [7] concerns Candida albicans ATCC 11006. The experiment in a line: MIC by serial microdilution in liquid culture. In kind it is cell-based. The note with it: C. albicans ATCC 11006; phosphate buffer 10 mM with 40% Müller Hinton broth, 48 hours at 37°C. The procedure: (§6) For each fungal strain 3-5 morphologically similar colonies were collected from fresh cultures, inoculated in Brain Heart Infusion broth medium and then incubated at 37°C in agitation at 225 r.p.m. for 6-8 hours. Subsequently, the fungal suspension was centrifuged at 1000 r.p.m. for 20 minutes and the obtained pellet was resuspended in phosphate buffer 10 mM and diluted to a turbidity equal to 5 of McFarland standard, corresponding to a concentration of 10^8 CFU/ml. Fungal suspension was diluted 1:100 in phosphate buffer 10 mM, then, within 30 minutes, 50 µl of this bacterial suspension (10^6 CFU/ml) were inoculated in each well of microtiter plate to obtain a final concentration of about 5 x 10^5 CFU/ml.
as §5

For assay [8], the system named is Malassezia pachydermatis DSMZ 6172. The experiment in a line: MIC by serial microdilution in liquid culture. In kind it is cell-based. Particulars: M. pachydermatis DSMZ 6172; phosphate buffer 10 mM with 40% Müller Hinton broth, 48 hours at 37°C. The procedure:
as §6, §5

For assay [9], the system named is MRSA ATCC 43300. Briefly: LD90/LD99 by microdilution and agar plating (CFU count). In kind it is cell-based, Methicillin Resistant Staphylococcus aureus (MRSA). The note with it: two hours contact at 37°C, plated on agar, CFU counted. The procedure: as §1, with “colonies were collected” for “colonies”, “fresh cultures,” for “fresh cultures were taken,”, “CFU/ml. the” for “CFU/ml. The”
Different molecules were tested for their ability to inhibit bacterial and fungal growth in broth culture. […]
The bacterial or fungal suspension has been contacted for two hours with the different antimicrobial molecules at 37°C. […] After incubation at 37°C for 24 hours for bacterial strains and 48 hours for fungal strains, colonies (CFU) were counted.

Assay [10] concerns Candida albicans ATCC 11006. Described as above. In kind it is cell-based. Particulars: C. albicans ATCC 11006; two hours contact at 37°C, plated on Sabouraud agar, CFU counted. The procedure:
as §6, with “The fungal” for “Fungal”
(§7) Different molecules were tested for their ability to inhibit bacterial and fungal growth in broth culture. 50 µl of molecules at the indicated below concentrations were added to microtiter U plate 96 wells with phosphate buffer and a suspension of one of these strains: Escherichia coli ATCC 25922, Pseudomonas aeruginosa ATCC 27853, Staphylococcus aureus ATCC 25923, MRSA ATCC 43300, Candida albicans ATCC 11006 or Malassezia pachydermatis DSMZ 6172.
(§8) The following concentrations of the different molecules were tested: • NCP-3: from 0,2 µg/ml to 50 µg/ml • Benzalkonium chloride: from 0,00008% to 0,04% • Thimerosal: from 0,0008% to 0,4% • Tris/EDTA: from 0,4%/0,1% to 0,0008%/0,0002%
(§9) The bacterial or fungal suspension has been contacted for two hours with the different antimicrobial molecules at 37°C. After incubation, 20 µl of solution were withdrawn from each dilution and plated on agar medium, Columbia with 5% of bovine erythrocytes for bacterial strains and Sabouraud agar for fungal strains. The inoculum was uniformly distributed on agar plates with a sterile disposable handle. After incubation at 37°C for 24 hours for bacterial strains and 48 hours for fungal strains, colonies (CFU) were counted.

The test system of assay [11] is Malassezia pachydermatis DSMZ 6172. The description is as above. In kind it is cell-based. The note with it: M. pachydermatis DSMZ 6172; two hours contact at 37°C, plated on Sabouraud agar, CFU counted. The procedure: as §6, with “The fungal” for “Fungal”
as §7, §8, §9

Assay [12] concerns Escherichia coli ATCC 25922. The assay is described as above. Particulars: E. coli ATCC 25922; two hours contact at 37°C, plated on agar, CFU counted. In kind it is cell-based. The procedure: as §1, with “colonies were collected” for “colonies”, “fresh cultures,” for “fresh cultures were taken,”, “CFU/ml. the” for “CFU/ml. The”
as §7, §8, §9

Assay [13] concerns Pseudomonas aeruginosa ATCC 27853. Described as above. In kind it is cell-based. The note with it: P. aeruginosa ATCC 27853; two hours contact at 37°C, plated on agar, CFU counted. The procedure: as §1, with “colonies were collected” for “colonies”, “fresh cultures,” for “fresh cultures were taken,”, “CFU/ml. the” for “CFU/ml. The”
as §7, §8, §9

In assay [14] the test system is Staphylococcus aureus ATCC 25923. The assay is described as above. In kind it is cell-based. Particulars: S. aureus ATCC 25923; two hours contact at 37°C, plated on agar, CFU counted. How it is done:
as §1, with “colonies were collected” for “colonies”, “fresh cultures,” for “fresh cultures were taken,”, “CFU/ml. the” for “CFU/ml. The”
as §7, §8, §9

Take `CC[C@H](C)[C@H](NC(=O)[C@H](CCCCN)NC(=O)[C@H](Cc1ccc(O)cc1)NC(=O)[C@H](Cc1ccccc1)NC(=O)[C@H](CC(C)C)NC(=O)[C@H](CC(N)=O)NC(=O)[C@H](CCCCN)NC(=O)[C@@H](NC(=O)[C@H](C)NC(=O)[C@@H]1CCCN1C(=O)[C@@H](NC(=O)[C@@H](NC(=O)[C@H](CCCCN)NC(=O)[C@H](CO)NC(=O)[C@H](CC(C)C)NC(=O)[C@@H](NC(=O)[C@H](Cc1c[nH]c2ccccc12)NC(=O)[C@@H](NC(=O)[C@H](CC(C)C)NC(=O)[C@@H](N)CCCCN)[C@@H](C)CC)[C@@H](C)CC)[C@@H](C)O)[C@@H](C)CC)[C@@H](C)CC)C(=O)O` [NCP-3] (H-KLIWILSKTIPAIKNLFYKI-OH): the MIC in assay [1] is reported as 6,3 µg/ml; in assay [2], 6,3 µg/ml; in assay [3], 3,1 µg/ml; in assay [4], 6,3 µg/ml; in assay [5], 3,2 µg/ml; in assay [6], 6,3 µg/ml. For the same compound, the MIC in assay [7] is on record as 12,5 µg/ml; in [8], 3,1 µg/ml. The LD90 in [9] is 6,3 µg/ml; in assay [10] it was >6,3 µg/ml; in assay [11], >1,6 µg/ml; in assay [12], 6,3 µg/ml; in assay [13], 6,3 µg/ml; in [14], >1,6 µg/ml. Besides, the LD99 was 12,5 µg/ml in assay [9]; 12,5 µg/ml in assay [10]; 3,2 µg/ml in assay [11]; 12,5 µg/ml in [12]; 12,5 µg/ml in [13]; 6,3 µg/ml in [14].
